In patent publication US11466023B2, “Combination of a Mcl-1 inhibitor and a standard of care treatment for hematologic cancers, uses and pharmaceutical compositions thereof” (LES LABORATOIRES SERVIER, priority 2017, dated 2022):
Like-named read-outs stand apart in the source and are kept apart here.

What was measured:
KG1 AML cell line = test: Single agent cell viability (CellTiterGlo); format: cell-based; conditions: 72 h; KG1, single agent, 3 days incubation, CellTiterGlo; read-out: IC50
Method: (§1) Cell lines were cultured at 37° C. in a humidified atmosphere containing 5% CO2 and expanded in T-150 flasks. […] In order to analyse the activity of the compounds as single agents, cells were seeded and treated with nine 2-fold serial dilutions of each compound dispensed individually directly into the cell assay plates. […] All the experiments were performed in triplicates. Luminescence was quantified on a multipurpose plate reader. Single agent IC50s were calculated using standard four-parametric curve fitting.

THP-1 AML cell line = test: Single agent cell viability (CellTiterGlo); format: cell-based; conditions: Homo sapiens, 72 h; THP-1, single agent, 3 days incubation, CellTiterGlo; read-out: IC50
Method: as §1

PL-21 AML cell line = test: Single agent cell viability (CellTiterGlo); format: cell-based; conditions: 72 h; PL-21, single agent, 3 days incubation, CellTiterGlo; read-out: IC50
Method: as §1

Nomo-1 AML cell line = test: Single agent cell viability (CellTiterGlo); format: cell-based; conditions: Homo sapiens, 72 h; Nomo-1, single agent, 3 days incubation, CellTiterGlo; read-out: IC50
Method: as §1

HL-60 AML cell line = test: Single agent cell viability (CellTiterGlo); format: cell-based; conditions: Homo sapiens, 72 h; HL-60, single agent, 3 days incubation, CellTiterGlo; read-out: IC50
Method: as §1

EOL-1 AML cell line = test: Single agent cell viability (CellTiterGlo); format: cell-based; conditions: Homo sapiens, EOL1, 72 h; EOL-1, single agent, 3 days incubation, CellTiterGlo; read-out: IC50
Method: as §1

MOLM-13 AML cell line = test: Single agent cell viability (CellTiterGlo); format: cell-based; conditions: Homo sapiens, 72 h; MOLM-13, single agent, 3 days incubation, CellTiterGlo; read-out: IC50
Method: as §1

ML-2 AML cell line = test: Single agent cell viability (CellTiterGlo); format: cell-based; conditions: 72 h; ML-2, single agent, 3 days incubation, CellTiterGlo; read-out: IC50
Method: as §1

MV4; 11 AML cell line = test: Single agent cell viability (CellTiterGlo); format: cell-based; conditions: Homo sapiens, 72 h; MV4; 11, single agent, 3 days incubation, CellTiterGlo; read-out: IC50
Method: as §1

KG1a AML cell line = test: Single agent cell viability (CellTiterGlo); format: cell-based; conditions: Homo sapiens, KG-1a, 72 h; KG1a, single agent, 3 days incubation, CellTiterGlo; read-out: IC50
Method: as §1

OCI-AML3 AML cell line = test: Single agent cell viability (CellTiterGlo); format: cell-based; conditions: Homo sapiens, OCI-AML-3, 72 h; OCI-AML3, single agent, 3 days incubation, CellTiterGlo; read-out: IC50
Method: as §1

Kasumi-1 AML cell line = test: Single agent cell viability (CellTiterGlo); format: cell-based; conditions: Homo sapiens, 72 h; Kasumi-1, single agent, 3 days incubation, CellTiterGlo; read-out: IC50
Method: as §1

GDM-1 AML cell line = test: Single agent cell viability (CellTiterGlo); format: cell-based; conditions: Homo sapiens, 72 h; GDM-1, single agent, 3 days incubation, CellTiterGlo; read-out: IC50
Method: as §1

[1] = system: mononuclear cells from ALL patient samples; test: Cell viability assay (sytox blue flow cytometry) in primary ALL samples; format: cell-based; conditions: Homo sapiens, 48 h, combination at 1:1 ratio, read-out: 50% lethal concentration (LC50)
Method: Bone marrow or peripheral blood samples from patients with ALL were collected after informed consent in accordance with guidelines approved by The Alfred Hospital Human research ethics committee. Mononuclear cells were isolated by Ficoll-Paque (GE Healthcare, Australia) density-gradient centrifugation, followed by red cell depletion in ammonium chloride (NH4Cl) lysis buffer at 37° C. for 10 minutes. Cells were then re-suspended in phosphate-buffered saline containing 2% Fetal Bovine serum (Sigma, Australia). Mononuclear cells were then suspended in RPMI-1640 (GIBCO, Australia) medium containing penicillin and streptomycin (GIBCO) and heat inactivated fetal bovine serum 15% (Sigma).
Freshly purified mononuclear cells from ALL patient samples were adjusted to a concentration of 2.5×10^5/ml and 100 μL of cells aliquoted per well into 96 well plates (Sigma). Cells were then treated with indicated drugs over a […] concentration range from 1 nM to 10 μM for 48 hours. For combinations assays, drugs were added at a 1:1 ratio from 1 nM to 10 μM and incubated at 37° C. 5% CO2. Cells were then stained with sytox blue nucleic acid stain (Invitrogen, Australia) and fluorescence measured by flow cytometric analysis using the LSR-II Fortessa (Becton Dickinson, Australia). FACSDiva software was used for data collection, and FlowJo software for analysis. Blast cells were gated using forward and side scatter properties. Viable cells excluding sytox blue were determined at 6 concentrations for each drug and the 50% lethal concentration (LC50, in μM) determined.

[2] = system: normal human CD34+ progenitor cells; conditions: 10 nM
primary AML samples = primary AML samples (leukemic progenitor cells), 10 nM

Nc1ccn([C@@H]2O[C@H](CO)[C@@H](O)[C@@H]2O)c(=O)n1 [Cytarabine, cytarabine]
IC50 (KG1 AML cell line): 170 nM | IC50 (THP-1 AML cell line): > 2000 nM | IC50 (PL-21 AML cell line): 100 nM | IC50 (Nomo-1 AML cell line): 990 nM | IC50 (HL-60 AML cell line): 740 nM | IC50 (EOL-1 AML cell line): 90 nM | IC50 (MOLM-13 AML cell line): 190 nM | IC50 (ML-2 AML cell line): 30 nM | IC50 (MV4; 11 AML cell line): 140 nM | IC50 (KG1a AML cell line): 240 nM | IC50 (OCI-AML3 AML cell line): > 2000 nM | IC50 (Kasumi-1 AML cell line): 1020 nM | IC50 (GDM-1 AML cell line): 30 nM | CC50 ([1]; ALL patient sample 01-046-2018, 48 hours): > 100000 nM | CC50 ([1]; ALL patient sample AH6031524, 48 hours): 51600 nM | CC50 ([1]; ALL patient sample AH6184311, 48 hours): 88000 nM | CC50 ([1]; ALL patient sample AH6196680, 48 hours): > 100000 nM | CC50 ([1]; ALL patient sample AH6198549, 48 hours): 10600 nM | CC50 ([1]; ALL patient sample AH6258921, 48 hours): > 100000 nM | CC50 ([1]; ALL patient sample AH7008157, 48 hours): > 100000 nM | CC50 ([1]; ALL patient sample AH7024700, 48 hours): 35900 nM | CC50 ([1]; ALL patient sample AH7104727, 48 hours): > 100000 nM | CC50 ([1]; ALL patient sample TB 10-05-02, 48 hours): > 100000 nM | CC50 ([1]; ALL patient sample TB 11-08-06, 48 hours): > 100000 nM | CC50 ([1]; ALL patient sample TB 15-06-05, 48 hours): > 100000 nM | CC50 ([1]; ALL patient sample TB 17-06-18, 48 hours): > 100000 nM | CC50 ([1]; ALL patient sample TB120803, 48 hours): > 100000 nM | CC50 ([1]; ALL patient sample TB151005, 48 hours): > 100000 nM | clonogenic growth [2]: toxic | clonogenic growth (primary AML samples): toxic
